Reference: patent US11919897B2, “Inhibitors of human immunodeficiency virus replication” (VIIV HEALTHCARE UK (No. 5) LIMITED, priority 2018, dated 2024)
Like-named read-outs stand apart in the source and are kept apart here.

Columns and labels:
Assay type in all cases: cell-based
[1] = system: recombinant NL4-3 virus (nef section replaced with Renilla luciferase gene) in MT-2 cells; test: HIV cell culture assay (antiviral activity, luciferase readout in infected MT-2 cells)
Description: HIV cell culture assay-MT-2 cells, 293T cells and the proviral DNA clone of NL4-3 virus were obtained from the NIH AIDS Research and Reference Reagent Program. MT-2 cells were propagated in RPMI 1640 media supplemented with 10% heat inactivated fetal bovine serum (FBS), 100 μg/ml penicillin G and up to 100 units/mL streptomycin. The 293T cells were propagated in DMEM media supplemented with 10% heat inactivated FBS, 100 μg/mL penicillin G and 100 μg/mL streptomycin. A recombinant NL4-3 proviral clone, in which a section of the nef gene was replaced with the Renilla luciferase gene, was used to make the reference virus used in these studies. The recombinant virus was prepared through transfection of the recombinant NL4-3 proviral clone into 293T cells using Transit-293 Transfection Reagent from Minis Bio LLC (Madison, WI). Supernatent was harvested after 2-3 days and the amount of virus present was titered in MT-2 cells using luciferase enzyme activity as a marker by measuring luciferase enzyme activity. Luciferase was quantitated using the EnduRen Live Cell Substrate from Promega (Madison, WI). Antiviral activities of compounds toward the recombinant virus were quantified by measuring luciferase activity in MT-2 cells infected for 4-5 days with the recombinant virus in the presence of serial dilutions of the compound.
The 50% effective concentration (EC50) was calculated by using the exponential form of the median effect equation where (Fa)=1/[1+(ED50/drug conc.)m] (Johnson V A, Byington R T. Infectivity Assay. In Techniques in HIV Research. ed. Aldovini A, Walker B D. 71-76. New York: Stockton Press. 1990).

uninfected MT2 cells = test: Compound cytotoxicity, XTT-based colorimetric assay; details: day 4, XTT assay
Description: (§1) Compound cytotoxicity and the corresponding CC50 values were determined using the same protocol as described in the antiviral assay except that uninfected cells were used. Cytotoxicity was assessed on day 4 in uninfected MT2 cells by using an XTT (2,3-bis[2-Methoxy-4-nitro-5-sulfophenyl]-2H-tetrazolium-5-carboxyanilide inner salt)-based colorimetric assay (Sigma-Aldrich, St Louis, Mo.).

[2] = as above; details: human; uninfected MT2 cells, day 4, XTT assay
Description: as §1

[3] = MT-2 cells infected for 4-5 days with recombinant NL4-3 Renilla luciferase virus, luciferase activity, read-out: EC50

Row | Molecule | EC50 [1, 3] | CC50 (uninfected MT2 cells) | EC50 ([1]; Renilla, NL43) | CC50 at 4 days [2]
1 | N—((S)-1-((3P)-3-(4-chloro-1-(2,2-difluoroethyl)-3-(methylsulfonamido)-1H-indazol-7-yl)-7-(2-cyclopropylethoxy)-4-oxo-3,4-dihydropyrido[2,3-d]pyrimidin-2-yl)-2-(3,5-difluorophenyl)ethyl)-2-((3bS,4aR)-3-(difluoromethyl)-5,5-difluoro-3b,4,4a,5-tetrahydro-1H-cyclopropa[3,4]cyclopenta[1,2-c]pyrazol-1-yl)acetamide [Example 22] | 0.29 nM | > 500 nM |  | 
2 | Cn1nc(NS(C)(=O)=O)c2c(Cl)ccc(-n3c([C@H](Cc4cc(F)cc(F)c4)NC(=O)Cn4nc(C(F)F)c5c4C(F)(F)[C@@H]4C[C@H]54)nc4nc(OCCN5CCCCC5)ccc4c3=O)c21 (atropisomer, axis not shown; (P)) [Example 11, N—((S)-1-((3P)-3-(4-chloro-1-methyl-3-(methylsulfonamido)-1H-indazol-7-yl)-4-oxo-7-(2-(piperidin-1-yl)ethoxy)-3,4-dihydropyrido[2,3-d]pyrimidin-2-yl)-2-(3,5-difluorophenyl)ethyl)-2-((3bS,4aR)-3-(difluoromethyl)-5,5-difluoro-3b,4,4a,5-tetrahydro-1H-cyclopropa[3,4]cyclopenta[1,2-c]pyrazol-1-yl)acetamide] |  |  | 0.49 nM | > 1000 nM
3 | N—((S)-1-((3P)-3-(4-chloro-1-methyl-3-(methylsulfonamido)-1H-indazol-7-yl)-4-oxo-7-(pyrimidin-2-ylmethoxy)-3,4-dihydropyrido[2,3-d]pyrimidin-2-yl)-2-(3,5-difluorophenyl)ethyl)-2-((3bS,4aR)-3-(difluoromethyl)-5,5-difluoro-3b,4,4a,5-tetrahydro-1H-cyclopropa[3,4]cyclopenta[1,2-c]pyrazol-1-yl)acetamide [Example 9] | 0.03 nM | > 1000 nM |  | 
4 | CCCCOCCOc1ccc2c(=O)n(-c3ccc(Cl)c4c(NS(C)(=O)=O)nn(C)c34)c([C@H](Cc3cc(F)cc(F)c3)NC(=O)Cn3nc(C(F)F)c4c3C(F)(F)[C@@H]3C[C@H]43)nc2n1 (atropisomer, axis not shown; (P)) [Example 27, N—((S)-1-(7-(2-butoxyethoxy)-(3P)-3-(4-chloro-1-methyl-3-(methylsulfonamido)-1H-indazol-7-yl)-4-oxo-3,4-dihydropyrido[2,3-d]pyrimidin-2-yl)-2-(3,5-difluorophenyl)ethyl)-2-((3bS,4aR)-3-(difluoromethyl)-5,5-difluoro-3b,4,4a,5-tetrahydro-1H-cyclopropa[3,4]cyclopenta[1,2-c]pyrazol-1-yl)acetamide] |  |  | 0.041 nM | > 100 nM
5 | Cn1nc(NS(C)(=O)=O)c2c(Cl)ccc(-n3c([C@H](Cc4cc(F)cc(F)c4)NC(=O)Cn4nc(C(F)F)c5c4C(F)(F)[C@@H]4C[C@H]54)nc4nc(OCCC5CC5)ccc4c3=O)c21 (atropisomer, axis not shown; (P)) [Example 24, N—((S)-1-((3P)-3-(4-chloro-1-methyl-3-(methylsulfonamido)-1H-indazol-7-yl)-7-(2-cyclopropylethoxy)-4-oxo-3,4-dihydropyrido[2,3-d]pyrimidin-2-yl)-2-(3,5-difluorophenyl)ethyl)-2-((3bS,4aR)-3-(difluoromethyl)-5,5-difluoro-3b,4,4a,5-tetrahydro-1H-cyclopropa[3,4]cyclopenta[1,2-c]pyrazol-1-yl)acetamide] |  |  | 0.051 nM | > 500 nM
6 | Cn1nc(NS(C)(=O)=O)c2c(Cl)ccc(-n3c([C@H](Cc4cc(F)cc(F)c4)NC(=O)Cn4nc(C(F)F)c5c4C(F)(F)[C@@H]4C[C@H]54)nc4nc(OCCCS(C)(=O)=O)ccc4c3=O)c21 (atropisomer, axis not shown; (P)) [Example 20, N—((S)-1-((3P)-3-(4-chloro-1-methyl-3-(methylsulfonamido)-1H-indazol-7-yl)-7-(3-(methylsulfonyl)propoxy)-4-oxo-3,4-dihydropyrido[2,3-d]pyrimidin-2-yl)-2-(3,5-difluorophenyl)ethyl)-2-((3bS,4aR)-3-(difluoromethyl)-5,5-difluoro-3b,4,4a,5-tetrahydro-1H-cyclopropa[3,4]cyclopenta[1,2-c]pyrazol-1-yl)acetamide] |  |  | 0.18 nM | > 500 nM
7 | Cn1nc(NS(C)(=O)=O)c2c(Cl)ccc(-n3c([C@H](Cc4cc(F)cc(F)c4)NC(=O)Cn4nc(C(F)F)c5c4C(F)(F)[C@@H]4C[C@H]54)nc4nc(OCCC(C)(C)C)ccc4c3=O)c21 (atropisomer, axis not shown; (P)) [Example 3, N—((S)-1-((3P)-3-(4-chloro-1-methyl-3-(methylsulfonamido)-1H-indazol-7-yl)-7-(3,3-dimethylbutoxy)-4-oxo-3,4-dihydropyrido[2,3-d]pyrimidin-2-yl)-2-(3,5-difluorophenyl)ethyl)-2-((3bS,4aR)-3-(difluoromethyl)-5,5-difluoro-3b,4,4a,5-tetrahydro-1H-cyclopropa[3,4]cyclopenta[1,2-c]pyrazol-1-yl)acetamide] |  |  | 0.06 nM | > 1000 nM
8 | Cn1nc(NS(C)(=O)=O)c2c(Cl)ccc(-n3c([C@H](Cc4cc(F)cc(F)c4)NC(=O)Cn4nc(C(F)F)c5c4C(F)(F)[C@@H]4C[C@H]54)nc4nc(OCCN5CCS(=O)(=O)CC5)ccc4c3=O)c21 (atropisomer, axis not shown; (P)) [Example 7, N—((S)-1-((3P)-3-(4-chloro-1-methyl-3-(methylsulfonamido)-1H-indazol-7-yl)-7-(2-(1,1-dioxidothiomorpholino)ethoxy)-4-oxo-3,4-dihydropyrido[2,3-d]pyrimidin-2-yl)-2-(3,5-difluorophenyl)ethyl)-2-((3bS,4aR)-3-(difluoromethyl)-5,5-difluoro-3b,4,4a,5-tetrahydro-1H-cyclopropa[3,4]cyclopenta[1,2-c]pyrazol-1-yl)acetamide] |  |  | 0.26 nM | > 1000 nM
9 | C[C@H](Oc1ccc2c(=O)n(-c3ccc(Cl)c4c(NS(C)(=O)=O)nn(C)c34)c([C@H](Cc3cc(F)cc(F)c3)NC(=O)Cn3nc(C(F)F)c4c3C(F)(F)[C@@H]3C[C@H]43)nc2n1)C1CCCC1 (atropisomer, axis not shown; (P)) [Example 23, N—((S)-1-((3P)-3-(4-chloro-1-methyl-3-(methylsulfonamido)-1H-indazol-7-yl)-7-((S)-1-cyclopentylethoxy)-4-oxo-3,4-dihydropyrido[2,3-d]pyrimidin-2-yl)-2-(3,5-difluorophenyl)ethyl)-2-((3bS,4aR)-3-(difluoromethyl)-5,5-difluoro-3b,4,4a,5-tetrahydro-1H-cyclopropa[3,4]cyclopenta[1,2-c]pyrazol-1-yl)acetamide] |  |  | 0.17 nM | > 500 nM
10 | Cn1nc(NS(C)(=O)=O)c2c(Cl)ccc(-n3c([C@H](Cc4cc(F)cc(F)c4)NC(=O)Cn4nc(C(F)F)c5c4C(F)(F)[C@@H]4C[C@H]54)nc4nc(OCc5ccccc5)ccc4c3=O)c21 (atropisomer, axis not shown; (P)) [Example 26, N—((S)-1-(7-(benzyloxy)-(3P)-3-(4-chloro-1-methyl-3-(methylsulfonamido)-1H-indazol-7-yl)-4-oxo-3,4-dihydropyrido[2,3-d]pyrimidin-2-yl)-2-(3,5-difluorophenyl)ethyl)-2-((3bS,4aR)-3-(difluoromethyl)-5,5-difluoro-3b,4,4a,5-tetrahydro-1H-cyclopropa[3,4]cyclopenta[1,2-c]pyrazol-1-yl)acetamide] |  |  | 0.1 nM | > 100 nM
